In PMC11653257, “Organometallic Half-Sandwich Complexes of 8-Hydroxyquinoline-Derived Mannich Bases with Enhanced Solubility: Targeting Multidrug Resistant Cancer” (Inorganic Chemistry, 2024):

System: MES-SA
Test: Cytotoxicity in triple coculture, MES-SA mCherry
Assay type: cell-based, human
Settings: MES-SA/B1, MES-SA/Dx5, 144 h
Experimental: Cell lines were purchased from the American Type Culture Collection (ATCC). MES-SA/B1 is a human MDR1-transfected derivative of MES-SA, and MES-SA mCherry, MES-SA/B1 mOrange, and MES-SA/Dx5 eGFP were engineered to stably express the respective fluorescent proteins previously.[62] Cells were kept in culture medium (DMEM) supplemented with 10% fetal bovine serum, 2 mM L-glutamine, 100 units/mL penicillin, and 100 μg/mL streptomycin (Thermo Fisher). One week before use, MES-SA/Dx5 eGFP cells were treated with 0.5 μM doxorubicin to ensure ABCB1/P-gp expression.
The tested compounds were dissolved in 50% (v/v) DMSO/PBS’ buffer to prepare 5–10 mM stock solutions, which were diluted in complete culture medium. Constitutive expression of the fluorescent proteins allowed multiplexing in cytotoxicity experiments.[62] Cells were mixed before seeding in 384-well plates: in double cocultures, MES-SA mCherry and MES-SA/Dx5 eGFP cells were seeded at 1250–1250 cells/well (in total 2500 cells/well); while in triple cocultures, MES-SA mCherry, MES-SA/Dx5 eGFP and MES-SA/B1 mOrange cells were seeded at 800–800–800 cells/well (in total 2400 cells/well). Serial dilutions of the compounds were added 24 h after seeding. To address the effect of P-gp function, TQ was added at a nontoxic concentration (0.4 μM) 15 min before the test compounds. The intensity of the fluorescent proteins, which is proportional to cell mass, was measured after 144 h of incubation at the respective fluorescent channels (excitation/emission: eGFP: 485 nm/510 nm; mOrange: 545 nm/567 nm; mCherry: 585 nm/610 nm). pIC50 values were calculated by a custom program written by Judit Sessler in C#.[62] IC50 values and standard deviation were calculated from average pIC50 values from at least 3 independent measurements.

[RhCp*(HQCl-Pip)Cl]Cl [(3)]
IC50: 2110 nM
